# Measurements as given in patent US6818630B1, “Biologically active materials” (ML Laboratories PLC, priority 1999, dated 2004).
# System: B16F10 murine melanoma
# Experiment: Anticancer activity and survival in C57 black mice bearing s.c. B16F10 melanoma
# Format: in vivo, mouse
# Experimental: Twenty four C57 black mice were injected subcutaneously (s.c.) with 10^5 B16F10 murine melanoma cells as described above and then monitored daily for well-being and the presence of palpable tumours. When the tumours were palpable, mice were randomly assigned into groups of six and their tumours measured with a micrometer gauge. Tumour size and mouse body weight is recorded. Each group is then injected intra-peritoneally with either sterile saline (negative control), free doxorubicin (5 mg kg^−1) in sterile saline or dextrin-doxorubicin (11.8 wt %, 34% succinolyation) at either 5 mg kg^−1 or 10 mg kg^−1, on days 0,1 and 2. The mice were monitored daily and tumour size and body weight recorded. Once the tumour area exceeded 2.89 cm^2 the mice were culled according to UKCCCR guidelines. Mouse survival is then expressed as % T/C (test/control saline).
smiles,measurement,setting,value
COc1cccc2c1C(=O)c1c(O)c3c(c(O)c1C2=O)C[C@@](O)(C(=O)CO)C[C@@H]3O[C@H]1C[C@H](N)[C@H](O)[C@H](C)O1 [doxorubicin],anticancer activity,5 mg kg^-1 i.p.,not active
same,body weight / toxicity,5 mg kg^-1 i.p.,drop in body weight consistent with toxicity
same,Toxic deaths,"5 mg kg^-1 i.p. on day 0,1,2",0/6
same,Days survival after treatment (mean ± SD),"5 mg kg^-1 i.p. on day 0,1,2, N = 6",4.5 ± 0.5^ns days
same,T/C (%),"5 mg kg^-1 i.p. on day 0,1,2, survival test/control saline",103%
